Reference: patent publication US10925283B2, “Microbiocidal phenylamidine derivatives” (SYNGENTA PARTICIPATIONS AG, priority 2016, dated 2021)

Legend:
Format in all cases: in vivo
[1] = test system: Puccinia recondita f. sp. tritici; assay: Puccinia recondita f. sp. tritici / wheat / leaf disc curative (brown rust); details: foliar, wheat leaf segments cv. Kanzler, compound applied 1 day after inoculation, assessed 6-8 days after application, read-out: control of Puccinia recondita f. sp. tritici (percent disease control compared to untreated)
Method: Puccinia recondita f. Sp. Tritici/Wheat/Leaf Disc Curative (Brown Rust) Wheat leaf segments cv. Kanzler are placed on agar in multiwell plates (24-well format). The leaf segments are inoculated with a spore suspension of the fungus. Plates are stored in darkness at 19° C. and 75% rh. The formulated test compound diluted in water is applied 1 day after inoculation. The leaf segments are incubated at 19° C. and 75% rh under a light regime of 12 h light/12 h darkness in a climate cabinet and the activity of a compound is assessed as percent disease control compared to untreated when an appropriate level of disease damage appears in untreated check leaf segments (6-8 days after application).

[2] = test system: Blumeria graminis f. sp. tritici (Erysiphe graminis f. sp. tritici); assay: Blumeria graminis f. sp. tritici / wheat / leaf disc preventative (powdery mildew on wheat); details: foliar, wheat leaf segments cv. Kanzler, inoculated 1 day after application, assessed 6-8 days after application, read-out: control of Blumeria graminis f. sp. tritici (percent disease control compared to untreated)
Method: Blumeria graminis f. sp. tritici (Erysiphe graminis f. sp. tritici)/Wheat/Leaf Disc Preventative (Powdery Mildew on Wheat) Wheat leaf segments cv. Kanzler are placed on agar in a multiwell plate (24-well format) and sprayed with the formulated test compound diluted in water. The leaf disks are inoculated by shaking powdery mildew infected plants above the test plates 1 day after application. The inoculated leaf disks are incubated at 20° C. and 60% rh under a light regime of 24 h darkness followed by 12 h light/12 h darkness in a climate chamber and the activity of a compound is assessed as percent disease control compared to untreated when an appropriate level of disease damage appears on untreated check leaf segments (6-8 days after application).

[3] = test system: Puccinia recondita f. sp. tritici; assay: Puccinia recondita f. sp. tritici / wheat / leaf disc preventative (brown rust); details: foliar, wheat leaf segments cv. Kanzler, inoculated 1 day after application, assessed 7-9 days after application, read-out: control of Puccinia recondita f. sp. tritici (percent disease control compared to untreated)
Method: Puccinia recondita f. Sp. Tritici/Wheat/Leaf Disc Preventative (Brown Rust) Wheat leaf segments cv. Kanzler are placed on agar in multiwell plates (24-well format) and sprayed with the formulated test compound diluted in water. The leaf disks are inoculated with a spore suspension of the fungus 1 day after application. The inoculated leaf segments are incubated at 19° C. and 75% rh under a light regime of 12 h light/12 h darkness in a climate cabinet and the activity of a compound is assessed as percent disease control compared to untreated when an appropriate level of disease damage appears in untreated check leaf segments (7-9 days after application).

Row | Structure (SMILES) | pest or weed control at 200 ppm [1] | pest or weed control at 200 ppm [2] | pest or weed control at 200 ppm [3]
1 | CCN(C)/C=N/c1cc(OC)c(C(O)(COCCc2ccc(OC)c(OC)c2)C(F)(F)F)cc1C (stereo not drawn) [E.022, N′-[4-[1-[2-(3,4-dimethoxyphenyl)ethoxymethyl]-2,2,2-trifluoro-1-hydroxy-ethyl]-5-methoxy-2-methyl-phenyl]-N-ethyl-N-methyl-formamidine] | ≥ 80% | ≥ 80% | 
2 | CCN(C)/C=N/c1cc(OC)c(C(O)(CS(=O)(=O)CC)C(F)(F)F)cc1C (stereo not drawn) [E.067, N-ethyl-N′-[4-[1-(ethylsulfonylmethyl)-2,2,2-trifluoro-1-hydroxy-ethyl]-5-methoxy-2-methyl-phenyl]-N-methyl-formamidine] | ≥ 80% | ≥ 80% | ≥ 80%
3 | CCN(C)/C=N/c1cc(OC)c(C(O)(COC2CCC(C)(C)CC2)C(F)(F)F)cc1C (stereo not drawn) [E.038, N′-[4-[1-[(4,4-dimethylcyclohexoxy)methyl]-2,2,2-trifluoro-1-hydroxy-ethyl]-5-methoxy-2-methyl-phenyl]-N-ethyl-N-methyl-formamidine] | ≥ 80% | ≥ 80% | ≥ 80%
4 | CCN(C)/C=N/c1cc(OC)c(C(O)(COCC2(c3ccc(Cl)cc3)CC2)C(F)(F)F)cc1C (stereo not drawn) [E.007, N′-[4-[1-[[1-(4-chlorophenyl)cyclopropyl]methoxymethyl]-2,2,2-triﬂuoro-1-hydroxy-ethyl]-5-methoxy-2-methyl-phenyl]-N-ethyl-N-methyl-formamidine] | ≥ 80% | ≥ 80% | ≥ 80%
5 | CCC1OCC(C)(COCC(O)(c2cc(C)c(/N=C/N(C)CC)cc2OC)C(F)(F)F)CO1 (stereo not drawn) [E.017, N-ethyl-N′-[4-[1-[(2-ethyl-5-methyl-1,3-dioxan-5-yl)methoxymethyl]-2,2,2-trifluoro-1-hydroxy-ethyl]-5-methoxy-2-methyl-phenyl]-N-methyl-formamidine] | ≥ 80% | ≥ 80% | ≥ 80%
6 | CCCSCC(O)(c1cc(C)c(/N=C/N(C)CC)cc1OC)C(F)(F)F (stereo not drawn) [E.062, N-ethyl-N′-[5-methoxy-2-methyl-4-[2,2,2-trifluoro-1-hydroxy-1-(propylsulfanylmethyl)ethyl]phenyl]-N-methyl-formamidine] | ≥ 80% | ≥ 80% | 
7 | CCN(C)/C=N/c1cc(OC)c(C(O)(CSC)C(F)(F)F)cc1C (stereo not drawn) [E.070, N-ethyl-N′-[5-methoxy-2-methyl-4-[2,2,2-trifluoro-1-hydroxy-1-(methylsulfanylmethyl)ethyl]phenyl]-N-methyl-formamidine] |  | ≥ 80% | ≥ 80%
8 | CCN(C)/C=N/c1cc(OC)c(C(O)(COCCON=C(C)C)C(F)(F)F)cc1C (stereo not drawn) [E.016, N-ethyl-N′-[5-methoxy-2-methyl-4-[2,2,2-trifluoro-1-hydroxy-1-[2-(isopropylideneamino)oxyethoxymethyl]ethyl]phenyl]-N-methyl-formamidine] | ≥ 80% | ≥ 80% | ≥ 80%
9 | CCN(C)/C=N/c1cc(OC)c(C(O)(COC2CCC2)C(F)(F)F)cc1C (stereo not drawn) [E.025, N′-[4-[1-(cyclobutoxymethyl)-2,2,2-trifluoro-1-hydroxy-ethyl]-5-methoxy-2-methyl-phenyl]-N-ethyl-N-methyl-formamidine] | ≥ 80% | ≥ 80% | ≥ 80%
10 | CCN(C)/C=N/c1cc(OC)c(C(O)(COCC2(C)COC2)C(F)(F)F)cc1C (stereo not drawn) [E.018, N-ethyl-N′-[5-methoxy-2-methyl-4-[2,2,2-trifluoro-1-hydroxy-1-[(3-methyloxetan-3-yl)methoxymethyl]ethyl]phenyl]-N-methyl-formamidine] | ≥ 80% | ≥ 80% | ≥ 80%
11 | CCN(C)/C=N/c1cc(OC)c(C(O)(COCc2ccco2)C(F)(F)F)cc1C (stereo not drawn) [E.023, N-ethyl-N′-[5-methoxy-2-methyl-4-[2,2,2-trifluoro-1-(2-furylmethoxymethyl)-1-hydroxy-ethyl]phenyl]-N-methyl-formamidine] | ≥ 80% | ≥ 80% | ≥ 80%
12 | CCN(C)/C=N/c1cc(OC)c(C(O)(CS(=O)(=O)C(C)C)C(F)(F)F)cc1C (stereo not drawn) [E.063, N-ethyl-N′-[5-methoxy-2-methyl-4-[2,2,2-trifluoro-1-hydroxy-1-(isopropylsulfonylmethyl)ethyl]phenyl]-N-methyl-formamidine] | ≥ 80% | ≥ 80% | ≥ 80%
13 | CCC1CCC(OCC(O)(c2cc(C)c(/N=C/N(C)CC)cc2OC)C(F)(F)F)CC1 (stereo not drawn) [E.033, N-ethyl-N′-[4-[1-[(4-ethylcyclohexoxy)methyl]-2,2,2-trifluoro-1-hydroxy-ethyl]-5-methoxy-2-methyl-phenyl]-N-methyl-formamidine] | ≥ 80% | ≥ 80% | ≥ 80%
14 | CCN(C)/C=N/c1cc(OC)c(C(O)(COCCC(C)(C)OC)C(F)(F)F)cc1C (stereo not drawn) [E.019, N-ethyl-N′-[5-methoxy-2-methyl-4-[2,2,2-trifluoro-1-hydroxy-1-[(3-methoxy-3-methyl-butoxy)methyl]ethyl]phenyl]-N-methyl-formamidine] | ≥ 80% | ≥ 80% | ≥ 80%
15 | CCN(C)/C=N/c1cc(OC)c(C(O)(COCc2ccc3ccccc3c2)C(F)(F)F)cc1C (stereo not drawn) [E.009, N-ethyl-N′-[5-methoxy-2-methyl-4-[2,2,2-trifluoro-1-hydroxy-1-(2-naphthylmethoxymethyl)ethyl]phenyl]-N-methyl-formamidine] | ≥ 80% | ≥ 80% | ≥ 80%
16 | CCN(C)/C=N/c1cc(OC)c(C(O)(CSC(C)C)C(F)(F)F)cc1C (stereo not drawn) [E.071, N-ethyl-N′-[5-methoxy-2-methyl-4-[2,2,2-trifluoro-1-hydroxy-1-(isopropylsulfanylmethyl)ethyl]phenyl]-N-methyl-formamidine] |  | ≥ 80% | ≥ 80%
17 | CCN(C)/C=N/c1cc(OC)c(C(O)(COCc2ccccc2C)C(F)(F)F)cc1C (stereo not drawn) [E.029, N-ethyl-N′-[5-methoxy-2-methyl-4-[2,2,2-trifluoro-1-hydroxy-1-(o-tolylmethoxymethyl)ethyl]phenyl]-N-methyl-formamidine] | ≥ 80% | ≥ 80% | ≥ 80%
18 | CCN(C)/C=N/c1cc(OC)c(C(O)(C2CCS(=O)(=O)CC2)C(F)(F)F)cc1C (stereo not drawn) [E.076, N′-[4-[1-(1,1-dioxothian-4-yl)-2,2,2-trifluoro-1-hydroxy-ethyl]-5-methoxy-2-methyl-phenyl]-N-ethyl-N-methyl-formamidine] | ≥ 80% |  | 
19 | CCN(C)/C=N/c1cc(OC)c(C(O)(COCC2CC2(F)F)C(F)(F)F)cc1C (stereo not drawn) [E.031, N′-[4-[1-[(2,2-difluorocyclopropyl)methoxymethyl]-2,2,2-trifluoro-1-hydroxy-ethyl]-5-methoxy-2-methyl-phenyl]-N-ethyl-N-methyl-formamidine] | ≥ 80% | ≥ 80% | ≥ 80%
20 | CCN(C)/C=N/c1cc(OC)c(C(O)(COC2CCc3ccccc32)C(F)(F)F)cc1C (stereo not drawn) [E.005, N-ethyl-N′-[5-methoxy-2-methyl-4-[2,2,2-trifluoro-1-hydroxy-1-(indan-1-yloxymethyl)ethyl]phenyl]-N-methyl-formamidine] | ≥ 80% | ≥ 80% | ≥ 80%
21 | CCN(C)/C=N/c1cc(OC)c(C(O)(COC2Cc3ccccc3C2)C(F)(F)F)cc1C (stereo not drawn) [E.010, N-ethyl-N′-[5-methoxy-2-methyl-4-[2,2,2-trifluoro-1-hydroxy-1-(indan-2-yloxymethyl)ethyl]phenyl]-N-methyl-formamidine] | ≥ 80% | ≥ 80% | ≥ 80%
22 | C=CCOCCOCC(O)(c1cc(C)c(/N=C/N(C)CC)cc1OC)C(F)(F)F (stereo not drawn) [E.030, N′-[4-[1-(2-allyloxyethoxymethyl)-2,2,2-trifluoro-1-hydroxy-ethyl]-5-methoxy-2-methyl-phenyl]-N-ethyl-N-methyl-formamidine] | ≥ 80% | ≥ 80% | ≥ 80%
